Like-named read-outs stand apart in the source and are kept apart here.
Legend:
[1] = molecular target: T1, porcine pancreatic α-amylase (Sus scrofa, UniProt P00690); test: α-Amylase inhibition activity assay (starch/DNS); format: biochemical; details: 0.5 mg/mL enzyme, pH 6.8, 37 °C
T1 construct: purchased Sigma-Aldrich
T1 sequence (P00690 16-511): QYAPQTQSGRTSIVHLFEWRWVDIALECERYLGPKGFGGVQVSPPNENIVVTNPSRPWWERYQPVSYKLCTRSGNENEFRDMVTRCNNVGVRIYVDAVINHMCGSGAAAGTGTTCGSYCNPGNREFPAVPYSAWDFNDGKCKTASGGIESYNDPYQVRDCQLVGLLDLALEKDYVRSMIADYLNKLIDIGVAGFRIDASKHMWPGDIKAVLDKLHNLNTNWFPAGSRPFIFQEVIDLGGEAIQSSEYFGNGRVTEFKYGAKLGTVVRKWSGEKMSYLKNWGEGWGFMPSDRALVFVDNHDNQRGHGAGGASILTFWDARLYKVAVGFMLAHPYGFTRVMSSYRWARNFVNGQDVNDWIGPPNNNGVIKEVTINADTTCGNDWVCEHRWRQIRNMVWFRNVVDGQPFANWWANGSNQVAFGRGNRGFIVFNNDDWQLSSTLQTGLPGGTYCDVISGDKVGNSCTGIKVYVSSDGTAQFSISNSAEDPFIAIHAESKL
Description: The Folin–Ciocalteu phenol reagent and chemicals used for the antioxidant activity assay were purchased from Aladdin Industrial Corporation (Shanghai, China). […] Analytical-grade materials were purchased from Guangzhou Reagent Co. (Guangzhou, China). Formic acid and acetonitrile used for the HPLC analysis were of chromatography grade. Water was purified by the Milli-Q (Millipore, MA, USA) system and filtered through membranes with a pore size of 0.22 μm before use.

α-glucosidase [2] = details: cited from earlier work
α-glucosidase [3] = test: α-Glucosidase inhibition activity assay (p-NPG); format: biochemical, Saccharomyces cerevisiae; details: 1 U/mL enzyme, pH 6.8, 37 °C
Description: The Folin–Ciocalteu phenol reagent and chemicals used for the antioxidant activity assay were purchased from Aladdin Industrial Corporation (Shanghai, China). Phenolic standards, trolox, p-Nitrophenyl-α-D-glucopyranoside (p-NPG, > 99.8%), porcine pancreatic α-amylase (13 U/mg), and α-glucosidase (≥ 58 U/mg solid) from Saccharomyces cerevisiae were all purchased from Sigma-Aldrich (St. Louis, MO, USA). Analytical-grade materials were purchased from Guangzhou Reagent Co. (Guangzhou, China). Formic acid and acetonitrile used for the HPLC analysis were of chromatography grade. Water was purified by the Milli-Q (Millipore, MA, USA) system and filtered through membranes with a pore size of 0.22 μm before use.
The inhibitory activity of α-glucosidase was performed as the previous reported method with modifications. Briefly, 100 μL of the extracts’ dilutions and 100 μL of 1 U/mL α-glucosidase in 0.1 M phosphate buffer solution (pH 6.8) was mixed and pre-incubated at 37 °C for 10 min. Then, 100 μL of 5 mM p-NPG solution was added, and the reaction solution was incubated for another 20 min. The reaction was terminated by adding 500 μL of 0.2 M Na2CO3 solution. The absorbance at 405 nm was recorded. […] The inhibitory potency (%) was calculated by Equation (3). (3) α-Glucosidase inhibitory potency (%) = [1−ΔAs/ΔAc]×100 where ΔAs = Aextract+enzyme − Aextract, ΔAc = Abuffer+enzyme − Abuffer.

[4] = DPPH radical scavenging activity assay; details: extracts made with 50% methanol
Method: DPPH assay was measured based on the method described earlier. The absorbance at 517 nm was recorded by a microplate reader (SpectraMax M5 Molecular Device, CA, USA). Trolox or Vc solution (5–100 μg/mL) were served as positive controls. […] (1) DPPH radical scavenging activity (%) = (1−As−Ab/Ac)×100 where As = the absorbance of the sample extracts with DPPH solution, Ab = the absorbance of the sample extracts without DPPH solution, Ac = the absorbance of DPPH solution.

[5] = Hydroxyl (OH^−) radical scavenging activity assay; details: extracts made with 50% methanol
Method: The scavenging activity of OH[…] radicals was measured based on the method described by Liu et al., 2017 [19]. The reaction mixture included 100 μL of the extracts’ dilutions, 100 μL of 6 mM […] solution, and 100 μL of 2.4 mM H2O2. After 10 min of incubation at 25°C, the mixture was incubated with 100 μL of 6 mM salicylic acid at 25 °C for 30 min, then the absorbance at 510 nm was measured. A Trolox or Vc solution (5–100 μg/mL) served as the positive control.

[6] = design: method as in Malinda et al. (2017) [34]; details: ref Malinda et al. (2017) [34]; cited from earlier work
[7] = ABTS cation radical scavenging activity assay; details: extracts made with 50% methanol
Method: ABTS assay was determined according to the method of Wang et al. (2017). The absorbance at […] was recorded by the microplate reader. Trolox or Vc solution (5–100 μg/mL) was served as positive controls. The scavenging activity (%) was calculated by Equation (2). (2) ABTS^+ radical scavenging activity (%) = (1−As−Ab/Ac)×100 where As = the absorbance of the extracts with ABTS^+ solution, Ab = the absorbance of the extracts without ABTS^+ solutionl, Ac = the absorbance of ABTS^+ solution.

[8] = constituents in raspberry, ref Zhang et al. (2010) [39]

α-glucosidase inhibition IC50 (α-glucosidase [3]) [µg/mL]	DPPH radical scavenging IC50 [4] [µg/mL]	OH^− free radical scavenging IC50 [5] [µg/mL]	Compound	DPPH radical scavenging activity IC50 [6] [µg/mL]	α-glucosidase inhibitory capacity (α-glucosidase [2]; [8])	other results
976.32 ± 41.72			O=c1oc2c(O)c(O)cc3c(=O)oc4c(O)c(O)cc1c4c23 [EA, Ellagic acid]	4.80	weakest	
590.34 ± 15.71			O=C(O)c1cc(O)c(O)c(O)c1 [GA, Gallic acid]	2.24	strong	
	39.90 ± 0.67	33.91 ± 1.82	Cc1c(C)c2c(c(C)c1O)CCC(C)(C(=O)O)O2 (stereo not drawn) [Trolox]			ABTS^+ free radical scavenging IC50 [7]: 41.50 ± 1.97 µg/mL

Further lines, the molecule ahead of its results:

Compound	α-glucosidase inhibition IC50 (α-glucosidase [3]) [µg/mL]	DPPH radical scavenging IC50 [4] [µg/mL]	OH^− free radical scavenging IC50 [5] [µg/mL]	DPPH radical scavenging activity IC50 [6] [µg/mL]	α-glucosidase inhibitory capacity (α-glucosidase [2]; [8])	other results
Oc1cc(O)c2c(c1)O[C@H](c1ccc(O)c(O)c1)[C@@H](O)[C@@H]2c1c(O)cc(O)c2c1O[C@H](c1ccc(O)c(O)c1)[C@@H](O)[C@@H]2c1c(O)cc(O)c2c1O[C@H](c1ccc(O)c(O)c1)[C@@H](O)C2 [PC, Procyanidin C3]	93.37 ± 5.79					α-amylase inhibition IC50 [1]: 92.31 ± 3.51 µg/mL; α-glucosidase inhibitory capacity (α-glucosidase [2]; ref Wang et al. (2018) [38]): strong
O=C1O[C@H]([C@@H](O)CO)C(O)=C1O [Vc, ascorbic acid]		16.80 ± 1.31	19.83 ± 0.37			
C[C@@H]1O[C@@H](OC[C@H]2O[C@@H](Oc3c(-c4ccc(O)c(O)c4)oc4cc(O)cc(O)c4c3=O)[C@H](O)[C@@H](O)[C@@H]2O)[C@H](O)[C@H](O)[C@H]1O [rutin, Rutin]					strong	

— PMC6719955, “HPLC-ESI-qTOF-MS/MS Characterization, Antioxidant Activities and Inhibitory Ability of Digestive Enzymes with Molecular Docking Analysis of Various Parts of Raspberry (Rubus ideaus L.)” (Antioxidants, 2019)
